For orientation: IC50 means the concentration that gives 50% inhibition. Low values mean inhibition by little substance, high ones a need for much substance.

The results in this text go back to publication PMC2248166, “Quantitative peptide binding motifs for 19 human and mouse MHC class I molecules derived using positional scanning combinatorial peptide libraries” (Immunome Research, 2008).

Where a SMILES comes first, the peptide text is derived from it.

Targets include HLA A*3201 (Homo sapiens, UniProt P04439, A270S/D101S/D185E/E176V/E277Q/F133L/G103R/G107R/G231S/H175R/I121M/I218V/I322F/K168Q/L105A/L300P/L318F/M331R/P208A/P217A/Q94H/R106L/R138Q/S129P/T104I/T323A/T345S/V100E/V321M/V358M); HLA B*1503 (Homo sapiens, UniProt P01889, A329T/A93T/A95T/C349S/D201E/D98Y/E187L/E204Q/K202T/N87E/Q94N/R155S/R180L/S121R/S35A/V306I/V36M/Y140S/Y91S); HLA B*1501 (Homo sapiens, UniProt P01889, A329T/A93T/A95T/C349S/D201E/D98Y/E187L/E204Q/E69M/E70A/K202T/N87E/Q94N/R155S/R180W/S121R/S35A/S48A/V306I/V36M/Y140S/Y91S).

Common to all, as to assay: biochemical
What all share (format): binding

Take `CSCC[C@H](NC(=O)[C@@H](N)Cc1c[nH]cn1)C(=O)N[C@@H](C)C(=O)N[C@@H](Cc1ccc(O)cc1)C(=O)N[C@@H](CO)C(=O)N[C@@H](Cc1ccccc1)C(=O)N[C@@H](CCC(N)=O)C(=O)N[C@H](C(=O)N[C@@H](Cc1ccccc1)C(=O)O)[C@@H](C)O` [3102.1331] (H-HMAYSFQTF-OH): the half-inhibitory concentration (IC50) at HLA A*3201 came out at 16 nM; against HLA B*1503, 0.28 nM; on HLA B*1501, 0.25 nM.
On the same counts, the results for `CC[C@H](C)[C@H](NC(=O)[C@@H](N)CCC(N)=O)C(=O)N[C@H](C(=O)N[C@@H](C)C(=O)N[C@@H](Cc1ccc(O)cc1)C(=O)N[C@@H](Cc1ccccc1)C(=O)N[C@@H](CO)C(=O)N[C@@H](CCC(=O)O)C(=O)N[C@@H](Cc1ccccc1)C(=O)O)C(C)C` [3102.0816] (H-QIVAYFSEF-OH) are 70 nM, 7.9 nM and 1.4 nM.
As for `CC(C)C[C@H](NC(=O)[C@@H](N)C(C)C)C(=O)N[C@@H](Cc1ccccc1)C(=O)N[C@@H](CCC(=O)O)C(=O)N[C@H](C(=O)N[C@@H](Cc1ccccc1)C(=O)N[C@H](C(=O)N[C@H](C(=O)N[C@@H](Cc1ccccc1)C(=O)O)C(C)C)C(C)C)C(C)C` [3102.0818] (H-VLFEVFVVF-OH), the figures for the concentration for half-maximal inhibition (IC50) on HLA A*3201, against HLA B*1503 and against HLA B*1501 were 7.8 nM, 4.9 nM and 2.9 nM, respectively.
Turning to `CC(C)C[C@H](NC(=O)[C@H](C)N)C(=O)N[C@@H](CC(C)C)C(=O)N[C@@H](CCC(=O)O)C(=O)N[C@@H](CC(C)C)C(=O)N[C@@H](Cc1ccccc1)C(=O)N[C@@H](CC(N)=O)C(=O)N[C@@H](C)C(=O)N[C@@H](Cc1ccccc1)C(=O)O` [3102.0961] (H-ALLELFNAF-OH), the results for the half-maximal inhibitory concentration (IC50) against HLA A*3201, against HLA B*1503 and on HLA B*1501 were 166 nM, 0.24 nM and 2.5 nM, respectively.
For `CC(C)C[C@H](NC(=O)[C@@H](NC(=O)[C@@H](NC(=O)[C@H](CO)NC(=O)[C@H](CC(N)=O)NC(=O)[C@H](CCC(N)=O)NC(=O)[C@@H](N)CC(C)C)C(C)C)C(C)C)C(=O)N[C@@H](CCC(N)=O)C(=O)N[C@@H](Cc1ccccc1)C(=O)O` [3102.1263] (H-LQNSVVLQF-OH), the half-inhibitory concentration (IC50) amounted to 7.3 nM at HLA A*3201, 6.2 nM against HLA B*1503 and 1.5 nM on HLA B*1501.
`CC(C)C[C@H](NC(=O)[C@@H](N)CCCCN)C(=O)N[C@@H](CC(N)=O)C(=O)N[C@@H](CC(N)=O)C(=O)N[C@H](C(=O)N[C@@H](Cc1ccccc1)C(=O)N[C@@H](Cc1ccc(O)cc1)C(=O)N[C@H](C(=O)N[C@@H](Cc1ccccc1)C(=O)O)C(C)C)C(C)C` [3102.1169] (H-KLNNVFYVF-OH): the values for the 50% inhibitory concentration (IC50) against HLA A*3201 and against HLA B*1501 were 0.52 nM and 1.2 nM, respectively.
Consider `CC[C@H](C)[C@H](NC(=O)[C@@H](NC(=O)[C@@H](N)CO)[C@@H](C)CC)C(=O)N[C@@H](CO)C(=O)N[C@@H](CC(C)C)C(=O)N[C@@H](Cc1ccccc1)C(=O)N[C@@H](Cc1ccc(O)cc1)C(=O)N[C@H](C(=O)N[C@@H](Cc1ccccc1)C(=O)O)[C@@H](C)O` [3102.0919] (H-SIISLFYTF-OH), for which the values for the IC50 against HLA A*3201 and against HLA B*1501 were 5.7 nM and 1.4 nM, respectively.
Regarding `CC[C@H](C)[C@H](NC(=O)[C@H](CO)NC(=O)[C@H](CC(N)=O)NC(=O)[C@H](CC(C)C)NC(=O)[C@@H](N)CO)C(=O)N[C@@H](Cc1ccccc1)C(=O)N[C@@H](CC(N)=O)C(=O)N[C@H](C(=O)N[C@@H](Cc1ccccc1)C(=O)O)[C@@H](C)O` [3102.1238] (H-SLNSIFNTF-OH), the values for the half-maximal inhibitory concentration (IC50) at HLA A*3201 and on HLA B*1501 were 14 nM and 2.2 nM, respectively.
On the same counts, the results for `CC[C@H](C)[C@H](NC(=O)[C@@H](N)CCSC)C(=O)N[C@@H](Cc1ccccc1)C(=O)N[C@@H](Cc1ccccc1)C(=O)N[C@@H](CC(N)=O)C(=O)N1CCC[C@H]1C(=O)N[C@H](C(=O)N[C@@H](CO)C(=O)N[C@@H](Cc1ccccc1)C(=O)O)C(C)C` [3102.0841] (H-MIFFNPVSF-OH) are 0.46 nM and 9.4 nM.
On the same counts, the results for `CC[C@H](C)[C@H](NC(=O)[C@H](CC(C)C)NC(=O)[C@@H](N)CCCNC(=N)N)C(=O)N[C@H](C(=O)N[C@@H](CC(C)C)C(=O)N[C@@H](Cc1ccccc1)C(=O)N[C@@H](CCC(=O)O)C(=O)N[C@H](C(=O)N[C@@H](Cc1ccccc1)C(=O)O)C(C)C)C(C)C` [3102.0817] (H-RLIVLFEVF-OH) are 13 nM and 6.8 nM.
`CC[C@H](C)[C@H](NC(=O)[C@@H](N)CCCCN)C(=O)NCC(=O)N[C@@H](CCSC)C(=O)N[C@@H](Cc1ccccc1)C(=O)N[C@@H](CC(N)=O)C(=O)N[C@@H](CC(C)C)C(=O)N[C@H](C(=O)N[C@@H](Cc1ccccc1)C(=O)O)[C@@H](C)O` [3102.0341] (H-KIGMFNLTF-OH): the IC50 turned out to be 0.27 nM on HLA A*3201, 13 nM at HLA B*1503 and 0.21 nM at HLA B*1501.
Regarding `CC(C)C[C@H](NC(=O)[C@@H](N)CC(C)C)C(=O)N[C@@H](Cc1ccc(O)cc1)C(=O)N[C@H](C(=O)N[C@@H](C)C(=O)N[C@@H](CC(N)=O)C(=O)N[C@@H](Cc1ccccc1)C(=O)N[C@H](C(=O)N[C@@H](Cc1ccccc1)C(=O)O)[C@@H](C)O)[C@@H](C)O` [3102.0873] (H-LLYTANFTF-OH), the half-inhibitory concentration (IC50) was determined as 6.7 nM on HLA A*3201 and 2.4 nM on HLA B*1501.
On the same counts, the results for `CC(C)C[C@H](NC(=O)[C@@H](N)CCCNC(=N)N)C(=O)N[C@@H](Cc1ccccc1)C(=O)N[C@@H](Cc1ccc(O)cc1)C(=O)N[C@H](C(=O)N[C@@H](Cc1ccccc1)C(=O)N[C@@H](Cc1ccccc1)C(=O)N[C@@H](CO)C(=O)N[C@@H](Cc1ccc(O)cc1)C(=O)O)[C@@H](C)O` [3102.0803] (H-RLFYTFFSY-OH) are 0.19 nM and 0.37 nM.
As to `CC[C@H](C)[C@H](N)C(=O)N[C@H](C(=O)N[C@@H](C)C(=O)N[C@@H](Cc1c[nH]cn1)C(=O)N[C@@H](CC(C)C)C(=O)N[C@H](C(=O)N[C@@H](CC(N)=O)C(=O)N[C@@H](CO)C(=O)N[C@@H](CC(C)C)C(=O)O)C(C)C)[C@@H](C)O` [3102.0503] (H-ITAHLVNSL-OH), the IC50 on HLA A*3201 stood at 183 nM; on HLA B*1501, 6.5 nM.
`CC(C)C[C@H](N)C(=O)N[C@H](C(=O)N[C@@H](Cc1ccccc1)C(=O)N[C@@H](CC(=O)O)C(=O)N[C@@H](Cc1ccc(O)cc1)C(=O)N[C@H](C(=O)N[C@H](C(=O)N[C@H](C(=O)N[C@@H](Cc1ccccc1)C(=O)O)[C@@H](C)O)C(C)C)C(C)C)[C@@H](C)O` [3102.0931] (H-LTFDYVVTF-OH): the IC50 against HLA A*3201 came out at 17 nM; on HLA B*1501, 2.5 nM.
As for `CC[C@H](C)[C@H](NC(=O)[C@@H](NC(=O)[C@@H](N)CC(C)C)[C@@H](C)CC)C(=O)N[C@H](C(=O)N[C@@H](CCCCN)C(=O)N[C@H](C(=O)N[C@@H](Cc1ccccc1)C(=O)N[C@@H](CO)C(=O)N[C@@H](Cc1ccccc1)C(=O)O)C(C)C)[C@@H](C)O` [3102.1011] (H-LIITKVFSF-OH), the concentration for half-maximal inhibition (IC50) came to 84 nM at HLA A*3201 and 7.7 nM against HLA B*1501.
On the same counts, the results for `CC[C@H](C)[C@H](N)C(=O)N[C@H](C(=O)N[C@H](C(=O)N1CCC[C@H]1C(=O)N[C@@H](CC(C)C)C(=O)N[C@@H](CO)C(=O)N[C@H](C(=O)N[C@@H](CO)C(=O)N[C@H](C(=O)O)[C@@H](C)CC)C(C)C)[C@@H](C)CC)[C@@H](C)CC` [3102.0502] (H-IIIPLSVSI-OH) are 70 nM and 299 nM.
Consider `CC[C@H](C)[C@H](NC(=O)[C@@H]1CCCN1C(=O)[C@H](CCC(=O)O)NC(=O)[C@H](CCC(=O)O)NC(=O)[C@H](CC(C)C)NC(=O)[C@H](Cc1ccc(O)cc1)NC(=O)[C@H](Cc1ccccc1)NC(=O)[C@H](CC(C)C)NC(=O)[C@@H](N)CCSC)C(=O)O` [3102.0881] (H-MLFYLEEPI-OH), for which the IC50 stood at 2.5 nM on HLA A*3201 and 45 nM against HLA B*1501.
As for `CC[C@H](C)[C@H](NC(=O)[C@@H](N)CC(N)=O)C(=O)N[C@@H](Cc1ccccc1)C(=O)N1CCC[C@H]1C(=O)N[C@@H](Cc1ccccc1)C(=O)N[C@@H](Cc1ccccc1)C(=O)N[C@H](C(=O)N[C@@H](C)C(=O)N[C@@H](Cc1ccccc1)C(=O)O)C(C)C` [3102.1019] (H-NIFPFFVAF-OH), the half-inhibitory concentration (IC50) on HLA A*3201 was 12 nM; on HLA B*1501, 2.2 nM.
`CC[C@H](C)[C@H](NC(=O)[C@H](CO)NC(=O)[C@@H](N)CCSC)C(=O)N[C@@H](CCSC)C(=O)N1CCC[C@H]1C(=O)N[C@H](C(=O)N[C@@H](CC(C)C)C(=O)N[C@@H](C)C(=O)N[C@@H](Cc1ccc(O)cc1)C(=O)O)C(C)C` [3102.0858] (H-MSIMPVLAY-OH): the half-inhibitory concentration (IC50) on HLA A*3201 came out at 100 nM; against HLA B*1501, 1.4 nM.
In the case of `CC[C@H](C)[C@H](NC(=O)[C@@H](NC(=O)[C@@H](N)CCCCN)[C@@H](C)O)C(=O)N[C@@H](Cc1ccc(O)cc1)C(=O)N[C@@H](C)C(=O)N[C@H](C(=O)N[C@@H](CC(=O)O)C(=O)N[C@@H](CO)C(=O)N[C@@H](Cc1ccccc1)C(=O)O)C(C)C` [3102.0340] (H-KTIYAVDSF-OH), the values for the half-maximal inhibitory concentration (IC50) at HLA A*3201 and at HLA B*1501 were 6.8 nM and 4 nM, respectively.
On the same counts, the results for `CC[C@H](C)[C@H](NC(=O)[C@@H](NC(=O)[C@@H](N)CCCCN)[C@@H](C)O)C(=O)N[C@@H](C)C(=O)N[C@@H](CCCNC(=N)N)C(=O)N[C@@H](Cc1ccccc1)C(=O)N[C@H](C(=O)N[C@@H](Cc1ccc(O)cc1)C(=O)N[C@@H](Cc1ccccc1)C(=O)O)[C@@H](C)O` [3102.1031] (H-KTIARFTYF-OH) are 95 nM and 0.2 nM.
On the same counts, the results for `CC(C)C[C@H](NC(=O)[C@H](Cc1ccccc1)NC(=O)[C@H](Cc1c[nH]c2ccccc12)NC(=O)[C@H](CC(C)C)NC(=O)[C@@H](N)CC(C)C)C(=O)N[C@H](C(=O)NCC(=O)N[C@H](C(=O)N[C@@H](Cc1ccccc1)C(=O)O)[C@@H](C)O)[C@@H](C)O` [3102.1045] (H-LLWFLTGTF-OH) are 93 nM and 0.78 nM.
